# ChEMBL document CHEMBL1150759, “[Cytotoxic and antibacterial substances from the ascidian Aplidium antillense]” (J Nat Prod, 1988)
# Experiments:
# Klebsiella pneumoniae = experiment: Antimicrobial activity against Klebsiella pneumoniae; type: functional
# Staphylococcus aureus [1] = experiment: Antimicrobial activity against methicillin-sensitive Staphylococcus aureus; type: functional
# Staphylococcus aureus [2] = experiment: Antimicrobial activity against methicillin-resistant Staphylococcus aureus; type: functional
# KB = experiment: Cytotoxicity against human KB cells; type: functional, cell-based
# Morganella morganii = experiment: Antimicrobial activity against Morganella morganii; type: functional
# Escherichia coli = experiment: Antimicrobial activity against Escherichia coli; type: functional
# Serratia marcescens = experiment: Antimicrobial activity against Serratia marcescens; type: functional
# Pseudomonas aeruginosa = experiment: Antimicrobial activity against Pseudomonas aeruginosa; type: functional
# Proteus mirabilis = experiment: Antimicrobial activity against Proteus mirabilis; type: functional
# P388 = experiment: Cytotoxicity against mouse P388 cells; type: functional, cell-based
# Enterococcus faecalis = experiment: Antimicrobial activity against Streptococcus faecalis; type: functional
SMILES,MIC (Klebsiella pneumoniae) [µg/mL],MBC/MIC ratio (Staphylococcus aureus [1]),MIC (Staphylococcus aureus [1]) [µg/mL],MBC/MIC ratio (Staphylococcus aureus [2]),MIC (Staphylococcus aureus [2]) [µg/mL],IC50 (KB) [µg/mL],MIC (Morganella morganii) [µg/mL],MIC (Escherichia coli) [µg/mL],MIC (Serratia marcescens) [µg/mL],MIC (Pseudomonas aeruginosa) [µg/mL],MIC (Proteus mirabilis) [µg/mL],IC50 (P388) [µg/mL],MBC/MIC ratio (Enterococcus faecalis),MIC (Enterococcus faecalis) [µg/mL]
CC(C)=CCC/C(C)=C/Cc1cc(O)ccc1O [GEROQUINOL],> 256,2,64,2,64,4.3,> 256,> 256,128,> 256,> 256,0.034,1,64
CC(C)=CCCC1(C)C=Cc2cc(O)ccc2O1 (stereo not drawn) [CORDIACHROMENE A],> 256,2,64,2,64,36,> 256,> 256,> 256,> 256,> 256,0.5,1,64
